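Test compounds were applied to cells in 96-well plates for 48 hours at 5 doses. GI50: concentration for 50% inhibition of growth.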 The source made the active and inactive calls. Cut-off read from the data, not from the text of the source: active = GI50 up to about 1.1 µM and inactive = higher.
Columns and labels:
Test in all cases: growth of human tumour cells (NCI), 48 h
[1] = test system: HT-29
[2] = test system: K562
[3] = test system: LOX IMVI
[4] = test system: SF-539
[5] = test system: U-251
[6] = test system: HL-60
[7] = test system: M19-MEL
[8] = test system: HOP-18
[9] = test system: RXF 393
[10] = test system: SNB-19
[11] = test system: SR
[12] = test system: UACC-257
[13] = test system: KM12
[14] = test system: XF498
[15] = test system: DLD-1
[16] = test system: HCT-15
[17] = test system: A549
[18] = test system: A498
[19] = test system: HCC 2998
[20] = test system: OVCAR-3
[21] = test system: NCI-H23
[22] = test system: SNB-75
[23] = test system: SF-268
[24] = test system: SK-MEL-2
[25] = test system: TK-10
[26] = test system: SF-295
[27] = test system: SK-OV-3
[28] = test system: ACHN
[29] = test system: M14
[30] = test system: HOP-62
[31] = test system: SK-MEL-5
[32] = test system: NCI-H460
[33] = test system: KM-20L2
[34] = test system: SW-620
[35] = test system: Malme-3M
[36] = test system: DMS-114
[37] = test system: 786-0
[38] = test system: UO-31
[39] = test system: UACC-62
[40] = test system: OVCAR-5
[41] = test system: HOP-92
[42] = test system: OVCAR-4
[43] = test system: SK-MEL-28
[44] = test system: COLO 205
[45] = test system: NCI-H522
[46] = test system: RPMI-8226
[47] = test system: CCRF-CEM
[48] = test system: HCT-116
[49] = test system: LXFL 529
[50] = test system: SN12C
[51] = test system: DMS-273
[52] = test system: EKVX
[53] = test system: OVCAR-8
[54] = test system: MOLT-4
[55] = test system: IGROV-1
[56] = test system: SNB-78
[57] = test system: NCI-H226
[58] = test system: CAKI-1

C/C(=N\NS(=O)(=O)c1ccc([N+](=O)[O-])cc1)c1ccc[n+]([O-])n1
GI50 [1]: 2110 nM (inactive)
GI50 [2]: 3330 nM (inactive)
GI50 [3]: 912 nM (active)
GI50 [4]: 2080 nM (inactive)
GI50 [5]: 1860 nM (inactive)
GI50 [6]: 1810 nM (inactive)
GI50 [7]: 2040 nM (inactive)
GI50 [8]: 11600 nM (inactive)
GI50 [9]: 1340 nM (inactive)
GI50 [10]: 3240 nM (inactive)
GI50 [11]: 3920 nM (inactive)
GI50 [12]: 3800 nM (inactive)
GI50 [13]: 2390 nM (inactive)
GI50 [14]: 2640 nM (inactive)
GI50 [15]: 2580 nM (inactive)
GI50 [16]: 5160 nM
GI50 [17]: 2190 nM (inactive)
GI50 [18]: 1980 nM (inactive)
GI50 [19]: 9460 nM (inactive)
GI50 [20]: 2230 nM (inactive)
GI50 [21]: 1700 nM (inactive)
GI50 [22]: 1950 nM (inactive)
GI50 [23]: 2330 nM (inactive)
GI50 [24]: 1920 nM (inactive)
GI50 [25]: 11600 nM (inactive)
GI50 [26]: 1900 nM (inactive)
GI50 [27]: 2640 nM (inactive)
GI50 [28]: 2440 nM (inactive)
GI50 [29]: 1800 nM (inactive)
GI50 [30]: 2090 nM (inactive)
GI50 [31]: 2350 nM (inactive)
GI50 [32]: 776 nM (active)
GI50 [33]: 4480 nM (inactive)
GI50 [34]: 2290 nM (inactive)
GI50 [35]: 3090 nM (inactive)
GI50 [36]: 1770 nM (inactive)
GI50 [37]: 2360 nM (inactive)
GI50 [38]: 2640 nM (inactive)
GI50 [39]: 1210 nM (inactive)
GI50 [40]: 2630 nM (inactive)
GI50 [41]: 2940 nM (inactive)
GI50 [42]: 1350 nM (inactive)
GI50 [43]: 3210 nM (inactive)
GI50 [44]: 2670 nM (inactive)
GI50 [45]: 1950 nM (inactive)
GI50 [46]: 2160 nM (inactive)
GI50 [47]: 3050 nM (inactive)
GI50 [48]: 1720 nM (inactive)
GI50 [49]: 2210 nM (inactive)
GI50 [50]: 2970 nM (inactive)
GI50 [51]: 764 nM (active)
GI50 [52]: 6900 nM (inactive)
GI50 [53]: 1760 nM (inactive)
GI50 [54]: 2920 nM (inactive)
GI50 [55]: 3790 nM (inactive)
GI50 [56]: 4480 nM (inactive)
GI50 [57]: 1770 nM (inactive)
GI50 [58]: 2320 nM (inactive)
